From the NIST ThermoML archive (doi:10.1016/j.tca.2016.01.006)
± gives the expanded uncertainty stated by the source.

Key:
[1] = DTA
[2] = Molar enthalpy of transition or fusion; conditions: DSC

Normal melting temperature ([1]; Crystal 1): 190.00 ± 2 °C
Normal melting temperature ([1]; Metastable crystal): 185.00 ± 2 °C
Molar enthalpy of transition or fusion ([2]; Crystal 1): 5.45 ± 0.17 kcal/mol
Molar enthalpy of transition or fusion ([2]; Metastable crystal): 7.24 ± 0.17 kcal/mol
Structure (SMILES): CC1=C(CC(=O)O)c2cc(F)ccc2/C1=C\c1ccc([S+](C)[O-])cc1 (centres undefined)
